Experimental data taken from patent publication US11833129B2, “Thiophene compound for treatment of exfoliating glaucoma” (Avoscience, LLC, priority 2013, dated 2023).

Experiments:
silkworm larvae, B. mori = conditions: concentrations in the diet up to 300 μg/g; cited from earlier work
[1] = tested on: Staphylococcus aureus Rosenbach; conditions: cited from earlier work
[2] = tested on: Bacillus subtilis (Ehrenberg) Cohn; conditions: cited from earlier work
[3] = tested on: focal adhesion kinase (FAK) [Tyr576] phosphorylation; test: western blot of FAK[Tyr576] phosphorylation in Hs578T cells; type: cell-based, human; conditions: 5 or 10 μl Formula I(n)/10 ml media, 3 days
Text: FIG. 5 is a western blot showing the inhibition of the phosphorylation of focal adhesion kinase (FAK) in Hs578T cells treated with Formula I(n). Antibodies that detect the FAK protein that has been phosphorylated on pTyr576 were used at a dilution of 1:1000 (rabbit anti-FAK[pTyr576] from Biosource Inc., Camarillo, Calif., USA).
It has previously been shown that reduced migratory ability of various invasive breast tumor cells, including MDA-MB231, Hs578T (Payne S L, Fogelgren B, Hess A R, Seftor E A, Fong S F T, Csiszar K, Hendrix M J C, and Kirschmann D A. Lysyl oxidase regulates breast cancer cell migration and adhesion through a hydrogen peroxide-mediated mechanism. Cancer Res. 65:11429-36, 2005), and astrocytoma cells (Laczko R, Szauter K M, Jansen M K, Hollosi P, Muranyi M, Molnar J, Fong K S K, Hinek A, Csiszar K. Active lysyl oxidase (LOX) correlates with FAK/paxillin activation and migration in invasive astrocytes. Neuropathol Appl Neurobiol. 33:631-43, 2007) was due to reduced activation of Focal Adhesion Kinase (FAK) and diminished SRC and/or Paxillin signaling. In order to determine the status of FAK activation in Formula I(n) treated cells, the phosphorylation status of FAK[Tyr576] in Hs578T cells treated with 5 and 10 μl Formula I(n) was analyzed.
In these experiments, Hs578T cells were cultured in standard DMEM, 1× Antibiotics and 10% FBS. […]

[4] = tested on: preconfluent neonatal foreskin fibroblast cells; test: cytoskeletal reorganization, phalloidin/propidium iodide staining; type: cell-based; conditions: pre-confluent fibroblasts; 5 or 10 μl Formula I(n); 24 hours; compared to controls
Protocol: (§1) FIG. 4A is a micrograph of preconfluent neonatal foreskin fibroblast cells that have not been treated with Formula I(n). After 24 hours of mock treatment, cells were stained with phalloidin (actin-green) and propidium iodide (nuclei-red). FIG. 4B is a micrograph of preconfluent neonatal foreskin fibroblast cells that have been treated with 5 μl/10 ml Formula I(n). After 24 hours of treatment, cells were stained with phalloidin (actin-green) and propidium iodide (nuclei-red). FIG. 4C is a micrograph of preconfluent neonatal foreskin fibroblast cells that have been treated with 10 μl/10 ml Formula I(n). After 24 hours of treatment, cells were stained with phalloidin (actin-green) and propidium iodide (nuclei-red). FIG. 4D is a micrograph of confluent MDA-MB231 breast cancer cells that have not been treated with Formula I(n). After 24 hours of mock treatment, cells were stained with phalloidin (actin-green) and propidium iodide (nuclei-red). FIG. 4E is a micrograph of confluent MDA-MB231 breast cancer cells that have been treated with 5 μl/10 ml Formula I(n). After 24 hours of treatment, cells were stained with phalloidin (actin-green) and propidium iodide (nuclei-red). FIG. 4F is a micrograph of confluent MDA-MB231 breast cancer cells that have been treated with 10 μl/10 ml Formula I(n). After 24 hours of treatment, cells were stained with phalloidin (actin-green) and propidium iodide (nuclei-red). FIG. 4G is a micrograph of preconfluent MDA-MB231 breast cancer cells that have not been treated with Formula I(n). After 24 hours of mock treatment, cells were stained with phalloidin (actin-green) and propidium iodide (nuclei-red). FIG. 4H is a micrograph of preconfluent MDA-MB231 breast cancer cells that have been treated with 5 μl/10 ml Formula I(n). After 24 hours of treatment, cells were stained with phalloidin (actin-green) and propidium iodide (nuclei-red).
Formula I(n) was next analyzed for its ability to induce cytoskeletal reorganization. […]

[5] = tested on: MDA-MB231 breast cancer cells; test: cytoskeletal reorganization and cell density, phalloidin/propidium iodide staining; type: cell-based, human; conditions: 24 hours
Protocol: as §1, with “After 24 hours of treatment, cells were stained with phalloidin (actin-green) and propidium iodide (nuclei-red). FIG. 4G is a micrograph of preconfluent MDA-MB231 breast cancer cells that have not been treated with Formula I(n). After 24 hours of mock treatment, cells were stained with phalloidin (actin-green) and propidium iodide (nuclei-red). FIG. 4H is a micrograph of preconfluent MDA-MB231 breast cancer cells that have been treated with 5 μl/10 ml Formula I(n). After 24 hours of treatment, cells were stained with phalloidin (actin-green) and propidium iodide (nuclei-red).” left out

[6] = tested on: foreskin fibroblasts (Clonetics); test: in vitro scratch assay, fibroblast migration; type: cell-based
Protocol: FIG. 2A is a micrograph of an in vitro scratch assay using fibroblasts showing the migration of fibroblasts at 0 hours without treatment of Formula I(n). Confluent cultures of foreskin fibroblasts (Clonetics) were scratched with the tip of a 200 μl pipet tip, rinsed once with PBS and media was changed to serum free media containing 0 μl/10 ml Formula I(n). Pictures were taken at the indicated time (0, 12, or 24 hours) following scratching and the distance between the migrating lips were measured in pixels. FIG. 2B is a micrograph of an in vitro scratch assay using fibroblasts showing the migration of fibroblasts at 0 hours upon treatment with 5 μl/10 ml Formula I(n). […]
FIG. 3 is a graph of the distance between the migrating lips (as measured in pixels) vs. the time (hours) after administration of Formula I(n). […]
Confluent cultures of foreskin fibroblasts (Clonetics) were scratched with the tip of a 200 μl pipet tip, rinsed once with PBS and media was changed to serum free media containing 0 (FIG. 2A, 2D, 2G) 5 (FIG. 2B, 2E, 2H) or 10 (FIG. 2C, 2F) μl/10 ml Formula I(n). Pictures were taken at 0 (FIG. 2A, 2B, 2C), 12 (FIG. 2D, 2E, 2F) or 24 (FIG. 2G, 2H) hours following scratching and the distance between the migrating lips were measured in pixels. FIG. 3 is a graph of the distance between the migrating lips (as measured in pixels) vs. the time (hours) after administration of Formula I(n).

[7] = tested on: Hs578T invasive breast tumor cells; test: Membrane Invasion Culture System (MICS) chamber tumor cell migration; type: cell-based, human; conditions: 5 or 10 μl/10 ml Formula I(n), 24 hours, vs untreated and methanol controls
[8] = tested on: MDA-MB231 invasive breast tumor cells; test: as above; type: cell-based, human; conditions: 5 or 10 μl/10 ml Formula I(n), 24 hours, vs untreated and methanol controls
Protocol: FIG. 1A is graph of cell migration using the breast cancer cell line MDA-MB231 for cells treated with 0 μl/10 ml, 5 μl/10 ml and 10 μl/10 ml Formula I(n). The effect of Formula I(n) on the migration of MDA-MB231 invasive breast tumor cells was tested using the Membrane Invasion Culture System (MICS) chamber. The Membrane Invasion Culture System (MICS) chamber was assembled with Crosstex 10 μm polycarbonate membrane pre-soaked in gelatin for 12 hours. The lower wells were fully loaded with DMEM supplemented with 10% FBS and 0, 5, 10 μl/10 ml Formula I(n) diluted in 0-20 μl/10 ml methanol. The upper wells were loaded with 1 ml serum-free phenol-red-free media and corresponding Formula I(n)/methanol solution. 100,000 cells/well were loaded and the chamber was incubated at 37° C. for 24 hours. […] The membrane was rinsed in water, placed onto a microscope slide pre-treated with immersion oil, covered with a coverslip and cells were counted under a light microscope. Each sample was measured in triplicate. […]
The Membrane Invasion Culture System (MICS) chamber was assembled with Crosstex 10 μm polycarbonate membrane pre-soaked in gelatin for 12 hours. […] The membrane was rinsed in water, placed onto a microscope slide pre-treated with immersion oil, covered with a coverslip and cells were counted under a light microscope. Each sample was measured in triplicate.

SMILES: CCCCC/C=C\C/C=C\CCCCCCCc1ccco1 [2-(8Z, 11Z-heptadecadienyl)furan, 2-(8Z,11Z-heptadecadienyl)furan]
- activity against silkworm larvae (silkworm larvae, B. mori): no activity

SMILES: C=CCCCCCCCCCCCc1ccco1 [2-(trideca-12-enyl)furan]
- growth of bacteria [1]: inhibited growth
- growth of bacteria [2]: inhibited growth

SMILES: CCCCC/C=C\C/C=C\CCCCCCCc1ccco1 [Formula I(n)]
- FAK[Tyr576] phosphorylation [3]: concentration dependent decrease
- filopodia [4]: numerous filopodia
- staining at adhesion sites [4]: reduced staining
- staining intensity of the actin cytoskeleton [4]: concentration dependent increase
- tumor cell morphology ([5]; 5 or 10 μl Formula I(n)): elongated, spindle shaped
- cell densities (tumor cell proliferation) ([5]; both Formula I(n) concentrations, both stages of cell confluency): significantly reduced
- migration of fibroblasts (distance between the migrating lips) ([6]; 5 or 10 μl/10 ml Formula I(n), 12 and 24 hours after scratching, serum free media): reduced migration
- migration of fibroblasts (distance between the migrating lips) ([6]; higher Formula I(n) concentration (10 μl/10 ml)): almost completely diminished
- tumor cell migration [7]: significantly inhibited
- tumor cell migration [8]: significantly inhibited
